Measured values taken from patent US8895695B2, “Template-fixed beta-hairpin peptidomimetics with CXCR4 antagonizing activity” (priority 2003, dated 2014).
Read-outs that look alike come from different tables or passages of the source. Bridge positions count the residues as written; N and C are the ends. Square brackets hold non-standard residues; d marks the D form. Peptide text beside a SMILES is read from it. * marks the point of attachment. Decanoyl(3,6,9-trioxa) = COCCOCCOCC(=O)*; 2Nal = N[C@@H](Cc1ccc2ccccc2c1)C(=O)O; Cit = NC(=O)NCCC[C@H](N)C(=O)O; Dab = NCC[C@H](N)C(=O)O; Dap = NC[C@H](N)C(=O)O

Experiments:
CXCR4 = CXCR4 (Homo sapiens, UniProt P61073); assay: Ca2+-assay method 2 (Flexstation, SDF-1 induced calcium mobilization); format: cell-based; parameters: expressed in transfected cells; host or cells: mouse pre-B cell line 300-19; conditions: method 2 (Ex. 54-160), mouse pre-B cell line 300-19 with human CXCR4, 10 nM SDF-1
Description: 2.2. Ca^2+-Assay: CXCR4-Antagonizing Activity of the Peptides.
The cells were batch loaded with the Calcium 3 Assay kit (Molecular Devices) in assay buffer (Hanks Balanced salt solution, HBSS, 20 mM HEPES, pH 7.4, 0.1% BSA) for 1 h at room temperature and then 200,000 labeled cells were dispensed into black 96 well assays plates (Costar No. 3603). A 20-fold concentrated solution of peptide in assay buffer was added to the cells and the whole plate was centrifuged to settle the cells to the bottom of the wells. Calcium mobilization induced by 10 nM stromal-derived factor-1 (SDF-1) was measured in the Flexstation 384 (excitation, 485 nM; emission, 525 nM) for 90 seconds. A maximal change in fluorescence response above baseline was used to calculate antagonist activity. The data for dose response curves (antagonist concentration versus % maximum response) were fitted to a four parameter logistic equation using SoftmaxPro 4.6 (Molecular Devices), from which IC50% values were calculated.

in vitro = conditions: human
[1] = system: human red blood cells (hRBC); assay: Hemolysis; format: cell-based
Description: The peptides were tested for their hemolytic activity against human red blood cells (hRBC). Fresh hRBC were washed three times with phosphate buffered saline (PBS) by centrifugation for 10 min at 2000×g. Peptides at a concentration of 100 μM were incubated with 20% v/v hRBC for 1 hour at 37° C. The final erythrocyte concentration was approximately 0.9×10^9 cells per ml. A value of 0% resp. 100% cell lysis was determined by incubation of the hRBC in the presence of PBS alone and respectively 0.1% Triton X-100 in H2O. The samples were centrifuged and the supernatant was 20-fold diluted in PBS buffer and the optical density (OD) of the sample at […] was measured. The 100% lyses value (OD540H2O) gave an OD540 of approximately 1.3-1.8. Percent hemolysis was calculated as follows: (OD540peptide/OD540H2O)×100%.

[2] = read-out: IC50 (nM) Ca^2+ assay
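Wherever GI50 is given: MTT reduction read as absorbance at 595 nm, blank-corrected and expressed as percent growth relative to the time-zero cell reading, triplicate wells per concentration.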

CXCR4, sequence (P61073 whole entry): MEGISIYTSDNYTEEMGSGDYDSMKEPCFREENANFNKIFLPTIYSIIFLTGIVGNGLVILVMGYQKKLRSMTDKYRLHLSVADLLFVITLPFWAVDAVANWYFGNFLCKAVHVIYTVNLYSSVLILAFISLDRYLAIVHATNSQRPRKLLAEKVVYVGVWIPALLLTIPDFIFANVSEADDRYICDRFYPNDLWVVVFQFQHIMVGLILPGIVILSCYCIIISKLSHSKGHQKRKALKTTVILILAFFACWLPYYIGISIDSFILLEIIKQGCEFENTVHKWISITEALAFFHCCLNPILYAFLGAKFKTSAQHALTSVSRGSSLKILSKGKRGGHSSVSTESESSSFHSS

Compound | IC50 (CXCR4; IC50 (nM) Ca^2+ assay) | IC50 (CXCR4; [2]) | GI50 at 48 h (in vitro) | Hemolysis at 100 μM [1]
COCCOCCOCC(=O)NCC[C@@H]1NC(=O)[C@H]2CCCN2C(=O)CNC(=O)[C@H](CCCNC(=N)N)NC(=O)[C@@H]2CSSC[C@H](NC(=O)[C@H](Cc3c[nH]c4ccccc34)NC(=O)[C@H](CCCNC(=N)N)NC1=O)C(=O)N[C@@H](Cc1ccc(O)cc1)C(=O)N[C@@H](CCCNC(N)=O)C(=O)N[C@@H](CCCCN)C(=O)N1CCC[C@@H]1C(=O)N1CCC[C@H]1C(=O)N[C@@H](Cc1ccc(O)cc1)C(=O)N[C@@H](CCCNC(=N)N)C(=O)N[C@@H](CCCNC(N)=O)C(=O)N2 [Ex. 142] (cyclo(YR[Cit]CRG[dP][Dab](Decanoyl(3,6,9-trioxa))RWCY[Cit]K[dP]P); disulfide 4-11) | 96.9 nM | – | – | –
C[C@@H]1NC(=O)[C@H](CCCNC(=N)N)NC(=O)[C@@H]2CSSC[C@H](NC(=O)[C@H](Cc3c[nH]c4ccccc34)NC(=O)[C@H](CCCNC(=N)N)NC(=O)[C@H](CCCNC(=N)N)NC(=O)[C@H]3CCCN3C1=O)C(=O)N[C@@H](Cc1ccc(O)cc1)C(=O)N[C@@H](CCCNC(N)=O)C(=O)N[C@@H](CCCCN)C(=O)N1CCC[C@@H]1C(=O)N1CCC[C@H]1C(=O)N[C@@H](Cc1ccc(O)cc1)C(=O)N[C@@H](CCCNC(=N)N)C(=O)N[C@@H](CCCNC(N)=O)C(=O)N2 [Ex. 143] (cyclo(YR[Cit]CRA[dP]RRWCY[Cit]K[dP]P); disulfide 4-11) | – | 0.9 nM | 46000 nM | –
N=C(N)NCCC[C@@H]1NC(=O)[C@@H]2CSSC[C@H](NC(=O)[C@H](Cc3ccc4ccccc4c3)NC(=O)[C@H](CCCNC(=N)N)NC(=O)[C@H](CCCNC(=N)N)NC(=O)[C@H]3CCCN3C(=O)CNC1=O)C(=O)N[C@@H](Cc1ccc(O)cc1)C(=O)N[C@@H](CCC(N)=O)C(=O)N[C@@H](CCCCN)C(=O)N1CCC[C@@H]1C(=O)N1CCC[C@H]1C(=O)N[C@@H](Cc1ccc(O)cc1)C(=O)N[C@@H](CCCNC(=N)N)C(=O)N[C@@H](CCCNC(N)=O)C(=O)N2 [Ex. 132] (cyclo(RR[2Nal]CYQK[dP]PYR[Cit]CRG[dP]); disulfide 4-13) | – | – | 76000 nM | 0%
N=C(N)NCCC[C@@H]1NC(=O)[C@@H]2CSSC[C@H](NC(=O)[C@H](Cc3ccc4ccccc4c3)NC(=O)[C@H](CCCNC(=N)N)NC(=O)[C@H](CCCNC(=N)N)NC(=O)[C@H]3CCCN3C(=O)CNC1=O)C(=O)N[C@@H](Cc1ccc(O)cc1)C(=O)N[C@@H](CCC(N)=O)C(=O)N[C@@H](CCCCN)C(=O)N1CCC[C@@H]1C(=O)N1CCC[C@H]1C(=O)N[C@@H](Cc1ccc(O)cc1)C(=O)N[C@@H](CCCNC(=N)N)C(=O)N[C@@H](CCCNC(N)=O)C(=O)N2 [Ex. 115] (cyclo(RR[2Nal]CYQK[dP]PYR[Cit]CRG[dP]); disulfide 4-13) | – | 2.7 nM | – | 0.1%
N=C(N)NCCC[C@@H]1NC(=O)[C@@H]2CSSC[C@H](NC(=O)[C@H](Cc3c[nH]c4ccccc34)NC(=O)[C@H](CCCNC(=N)N)NC(=O)[C@H](CCCNC(=N)N)NC(=O)[C@H]3CCCN3C(=O)CNC1=O)C(=O)N[C@@H](Cc1ccc(O)cc1)C(=O)N[C@@H](CCCNC(N)=O)C(=O)N[C@@H](CCCCN)C(=O)N1CCC[C@@H]1C(=O)N1CCC[C@H]1C(=O)N[C@@H](Cc1ccc(O)cc1)C(=O)N[C@@H](CCCNC(=N)N)C(=O)N[C@@H](CCCNC(N)=O)C(=O)N2 [Ex. 128] (cyclo(YR[Cit]CRG[dP]RRWCY[Cit]K[dP]P); disulfide 4-11) | – | 4.5 nM | – | –
C[C@@H](O)[C@@H]1NC(=O)[C@H](CCCNC(=N)N)NC(=O)[C@H](Cc2ccc(O)cc2)NC(=O)[C@@H]2CCCN2C(=O)[C@H]2CCCN2C(=O)[C@H](CCCCN)NC(=O)[C@H](CCCNC(N)=O)NC(=O)[C@H](Cc2ccc(O)cc2)NC(=O)[C@@H]2CSSC[C@H](NC1=O)C(=O)N[C@@H](CCCNC(=N)N)C(=O)NCC(=O)N1CCC[C@@H]1C(=O)N[C@@H](CCCNC(=N)N)C(=O)N[C@@H](CCCNC(=N)N)C(=O)N[C@@H](Cc1ccc(O)cc1)C(=O)N2 [Ex. 146] (cyclo(YRTCRG[dP]RRYCY[Cit]K[dP]P); disulfide 4-11) | – | 0.24 nM | – | –
N=C(N)NCCC[C@@H]1NC(=O)[C@@H]2CSSC[C@H](NC(=O)[C@H](Cc3ccc4ccccc4c3)NC(=O)[C@H](CCCNC(=N)N)NC(=O)[C@H](CN)NC(=O)[C@H]3CCCN3C(=O)CNC1=O)C(=O)N[C@@H](Cc1ccc(O)cc1)C(=O)N[C@@H](CCCNC(N)=O)C(=O)N[C@@H](CCCCN)C(=O)N1CCC[C@@H]1C(=O)N1CCC[C@H]1C(=O)N[C@@H](Cc1ccc(O)cc1)C(=O)N[C@@H](CCCNC(=N)N)C(=O)N[C@@H](CCCNC(N)=O)C(=O)N2 [Ex. 135] (cyclo(YR[Cit]CRG[dP][Dap]R[2Nal]CY[Cit]K[dP]P); disulfide 4-11) | – | – | 30000 nM | 0.1%
N=C(N)NCCC[C@@H]1NC(=O)[C@@H]2CSSC[C@H](NC(=O)[C@H](Cc3c[nH]c4ccccc34)NC(=O)[C@H](CCCNC(=N)N)NC(=O)[C@H](CCCNC(=N)N)NC(=O)[C@H]3CCCN3C(=O)CNC1=O)C(=O)N[C@@H](Cc1ccc(O)cc1)C(=O)N[C@@H](CCC(N)=O)C(=O)N[C@@H](CCCCN)C(=O)N[C@H]1CSSC[C@H](NC(=O)[C@H](Cc3ccc(O)cc3)NC(=O)CNC(=O)[C@H](CCCCN)NC(=O)[C@H](Cc3ccc(O)cc3)NC1=O)C(=O)N[C@@H](Cc1ccc(O)cc1)C(=O)N[C@@H](CCCNC(=N)N)C(=O)N[C@@H](CCCNC(N)=O)C(=O)N2 [Ex. 155] (cyclo(CRG[dP]RRWCYQKCYKGYCYR[Cit]); disulfide 1-8, 12-17) | 0.46 nM | – | – | –
CC(C)C[C@@H]1NC(=O)[C@@H]2CCCN2C(=O)[C@H]2CCCN2C(=O)[C@H](CCCCN)NC(=O)[C@H](CCC(N)=O)NC(=O)[C@H](Cc2ccc(O)cc2)NC(=O)[C@@H]2CSSC[C@H](NC(=O)[C@H](CCCNC(N)=O)NC(=O)[C@H](CCCNC(=N)N)NC1=O)C(=O)N[C@@H](CCCNC(=N)N)C(=O)NCC(=O)N1CCC[C@@H]1C(=O)N[C@@H](CCCNC(=N)N)C(=O)N[C@@H](CCCNC(=N)N)C(=O)N[C@@H](Cc1ccc3ccccc3c1)C(=O)N2 [Ex. 144] (cyclo(LR[Cit]CRG[dP]RR[2Nal]CYQK[dP]P); disulfide 4-11) | – | 0.18 nM | – | –
N=C(N)NCCC[C@@H]1NC(=O)[C@H](CCCNC(=N)N)NC(=O)[C@H]2CCCN2C(=O)CNC(=O)[C@H](CCN)NC(=O)[C@@H]2CSSC[C@H](NC(=O)[C@H](Cc3c[nH]c4ccccc34)NC1=O)C(=O)N[C@@H](Cc1ccc(O)cc1)C(=O)N[C@@H](CCC(N)=O)C(=O)N[C@@H](CCCCN)C(=O)N1CCC[C@@H]1C(=O)N1CCC[C@H]1C(=O)N[C@@H](Cc1ccc(O)cc1)C(=O)N[C@@H](CCCNC(=N)N)C(=O)N[C@@H](CCCNC(N)=O)C(=O)N2 [Ex. 111] (cyclo(YR[Cit]C[Dab]G[dP]RRWCYQK[dP]P); disulfide 4-11) | – | – | > 100000 nM | 0%
C[C@@H](O)[C@@H]1NC(=O)[C@H]2CCCN2C(=O)CNC(=O)[C@H](CCCNC(=N)N)NC(=O)[C@@H]2CSSC[C@H](NC(=O)[C@H](Cc3ccc4ccccc4c3)NC(=O)[C@H](CCCNC(=N)N)NC1=O)C(=O)N[C@@H](Cc1ccc(O)cc1)C(=O)N[C@@H](CCC(N)=O)C(=O)N[C@@H](CCCCN)C(=O)N1CCC[C@@H]1C(=O)N1CCC[C@H]1C(=O)N[C@@H](Cc1ccc(O)cc1)C(=O)N[C@@H](CCCNC(=N)N)C(=O)N[C@@H](CCCNC(N)=O)C(=O)N2 [Ex. 56] (cyclo(YR[Cit]CRG[dP]TR[2Nal]CYQK[dP]P); disulfide 4-11) | – | 0.74 nM | 60000 nM | –
N=C(N)NCCC[C@@H]1NC(=O)[C@@H]2CSSC[C@H](NC(=O)[C@H](Cc3ccc4ccccc4c3)NC(=O)[C@H](CCCNC(=N)N)NC(=O)[C@H](CCCNC(=N)N)NC(=O)[C@H]3CCCN3C(=O)CNC1=O)C(=O)N[C@@H](Cc1ccc(O)cc1)C(=O)N[C@@H](CCCNC(N)=O)C(=O)N[C@@H](CCCCN)C(=O)N[C@H]1CSSC[C@H](NC(=O)[C@H](Cc3ccc(O)cc3)NC(=O)CNC(=O)[C@H](CCCCN)NC(=O)[C@H](Cc3ccc(O)cc3)NC1=O)C(=O)N[C@@H](Cc1ccc(O)cc1)C(=O)N[C@@H](CCCNC(=N)N)C(=O)N[C@@H](CCCNC(N)=O)C(=O)N2 [Ex. 154] (cyclo([2Nal]CY[Cit]KCYKGYCYR[Cit]CRG[dP]RR); disulfide 2-15, 6-11) | 9.3 nM | – | – | –
N=C(N)NCCC[C@@H]1NC(=O)[C@@H]2CSSC[C@H](NC(=O)[C@H](Cc3c[nH]c4ccccc34)NC(=O)[C@H](CCCNC(=N)N)NC(=O)[C@H](CCCNC(=N)N)NC(=O)[C@H]3CCCN3C(=O)CNC1=O)C(=O)N[C@@H](Cc1ccc(O)cc1)C(=O)N[C@@H](CCCNC(=N)N)C(=O)N[C@@H](CCCCN)C(=O)N[C@H]1CSSC[C@H](NC(=O)[C@H](Cc3ccc(O)cc3)NC(=O)CNC(=O)[C@H](CCCCN)NC(=O)[C@H](Cc3ccc(O)cc3)NC1=O)C(=O)N[C@@H](Cc1ccc(O)cc1)C(=O)N[C@@H](CCCNC(=N)N)C(=O)N[C@@H](CCCCN)C(=O)N2 [Ex. 160] (cyclo(CRG[dP]RRWCYRKCYKGYCYRK); disulfide 1-8, 12-17) | 0.38 nM | – | – | –
